Experiments:
[1] = molecular target: D427N PKCβII catalytic domain; experiment: Fluorescence polarisation binding of fluorescein-PSS peptide, D427N; settings: catalytic domains
Protocol: Figure 3 D427N PKCβII has an altered substrate repertoire in vitro . A–D – Representative titration curves from assays of WT or D427N PKCβII catalytic domains with excess ATP and titrations of either histone type III-S, MBP, PSS peptide or BTK S180 peptide. Specific activity in nmol/min/mg was calculated using an ADP standard curve. Error bars indicate the mean ± SD from three technical replicates. E and F – Km and Vmax values of WT and D427N PKCβII catalytic domains for each substrate, obtained from Michaelis–Menten fits of titration curves in (A-D). Error bars indicate the mean ± SD from three independent assays (*=P<0.05, **=P<0.01 versus WT by t-test with Holm–Šídák correction for multiple comparisons). G – Representative binding curves of anisotropy vs protein concentration when WT or D427N PKCβII catalytic domains were titrated into fluorescein–PSS peptide; KD values are shown ± the error of the fit. […] H – Differential heat map of WT and D427N PKCβII activity towards a PamChip microarray, calculated from log2 fold change values relative to a no ATP control array. […] The measured ligand is the PSS peptide, and WT and D427N are protein variants.
Fluorescence polarisation (FP) experiments were performed using an FP-8500 spectrofluorometer (Jasco). […] Equilibrium dissociation constants were determined by plotting anisotropy as a function of PKCβII catalytic domain concentration. […]

[2] = test system: D427N PKCβII catalytic domain; experiment: ADP-Glo in vitro kinase assay with ATP-competitive inhibitors, D427N compared with WT; assay type: biochemical; settings: 50 μM ATP, 200 μM PSS peptide; IC50 of D427N higher than WT
Protocol: Given the proximity of the mutation to the nucleotide pocket of the kinase, we compared the potency of three ATP-competitive inhibitors in WT and D427N PKCβII to assess if existing PKC inhibitors could be used to target the mutant. We assayed WT and D427N PKCβII catalytic domains at 50 μM ATP with one indolocarbazole inhibitor (UCN-01) and two bisindolylmaleimide inhibitors (BIM-1 and the PKCβ-specific inhibitor ruboxistaurin) (Figure 5A–C). […] These differences were 17-fold for ruboxistaurin, 9-fold for BIM-1 and 25-fold for UCN-01.
Figure 5 Pharmacology of D427N PKCβII. A–C – Representative dose-response curves when WT and D427N PKCβII catalytic domains were assayed with the indicated inhibitors, 50 μM ATP and 200 μM PSS peptide. ADP produced in the assays was measured by luminescence and converted to specific activity using an ADP standard curve. Error bars indicate the mean ± SD from three technical replicates. D – IC50 values obtained from fitting curves in (A-C). Error bars indicate the mean ± SD from three independent dose-response assays (*=P<0.05, **=P<0.01 versus WT by t-test with Holm–Šídák correction for multiple comparisons). E,F – Orthogonal views of Ruboxistaurin (pink) in the PKCβII nucleotide-binding pocket (cyan). A σA-weighted |2Fo-Fc| map is shown contoured at 1.5 σ. The location of the N427 side chain is indicated. Figure was generated using UCSF ChimeraX.
Kinase assays were carried out in white, 384-well OptiPlates (PerkinElmer) using an ADP-Glo kit (Promega) on a scale of […] for the kinase reaction. Kinase was diluted in assay buffer (40 mM Tris-HCl pH 7.5, 20 mM MgCl2, 0.1 mg/ml BSA (NEB, #B9000S), 1 mM DTT) and added to the plate (typically 0.5–1 ng/well). The assay was started by adding the substrates at a final concentration of 50–300 μM [ATP and either histone type III-S (Sigma, #H5505), MBP (Sigma, #M1891), or a peptide]. […] Luminescence was recorded using an EnSight MultiMode Plate Reader (PerkinElmer), and the slope of a standard curve was used to convert luminescence values to specific activity in nmol ADP/min/mg.

| Compound | binding affinity of D427N PKCβII relative to WT (from KD values) [1] | difference in IC50, D427N PKCβII catalytic domain versus WT [2] |
| --- | --- | --- |
| CC(C)C[C@H](NC(=O)[C@H](CO)NC(=O)CNC(=O)[C@H](CCCCN)NC(=O)[C@H](CCCNC(=N)N)NC(=O)[C@H](C)NC(=O)[C@H](Cc1ccccc1)NC(=O)[C@H](CCCNC(=N)N)NC(=O)[C@@H](NC(=O)[C@@H](NC(=O)[C@H](CO)NC(=O)[C@H](CCC(=O)O)NC(=O)c1ccc2c(c1)C(=O)OC21c2ccc(O)cc2Oc2cc(O)ccc21)[C@@H](C)O)C(C)C)C(=O)N[C@@H](CCCNC(=N)N)C(=O)N[C@@H](CCC(N)=O)C(=O)N[C@@H](CCCCN)C(=O)N[C@@H](CC(N)=O)C(=O)N[C@H](C(=O)N[C@@H](Cc1c[nH]cn1)C(N)=O)C(C)C | two-fold weaker affinity than WT |  |
| CN(C)CCCn1cc(C2=C(c3c[nH]c4ccccc34)C(=O)NC2=O)c2ccccc21 [BIM-1] |  | 9 fold |
| CNC1CC2OC(C)(C1OC)n1c3ccccc3c3c4c(c5c6ccccc6n2c5c31)C(=O)NC4O (stereo not shown) [UCN-01] |  | 25 fold |
| CN(C)C[C@@H]1CCn2cc(c3ccccc32)C2=C(C(=O)NC2=O)c2cn(c3ccccc23)CCO1 [ruboxistaurin] |  | 17 fold |
